Literature values as cited in publication PMC9332635 (Journal of Food and Drug Analysis, 2017).

Legend:
[1] = method validation study of isosteviol
[2] = tested on: HBsAg secretion in HBV-transfected cell-lines

SMILES | Long-term stability [1] | IC50 for inhibiting HBsAg secretion [2]
C[C@@]12CC[C@@H]3[C@@](CC[C@H]4[C@@]3(C)CCC[C@@]4(C)C(=O)O)(CC1=O)C2 [isosteviol] | 61 days | –
Nc1ccn([C@@H]2CS[C@H](CO)O2)c(=O)n1 [lamivudine] | – | 49.13 µg/mL
